Read-outs that look alike come from different tables or passages of the source.
Key:
FMO = target: FMO; set-up: method as in Zhou et al (2002); settings: ref Zhou et al (2002), read-out: Reported Ki or IC50 values; cited from earlier work
[1] = tested on: CYP enzymes that metabolise ribociclib in HLM (total metabolism; CYP-selective chemical inhibitors); assay: Inhibition of [3H] ribociclib total metabolism in HLM by CYP- and FMO-selective inhibitors; format: in vitro ADME; settings: both, human, human liver microsomes, pH 7.4, probe [3H] ribociclib
CYP2C9 = settings: cited from earlier work
CYP2D6 = settings: ref literature search, read-out: Reported Ki or IC50 values, median (and range); cited from earlier work
CYP1A2 = settings: ref literature search, read-out: Reported Ki or IC50 values, median (and range); cited from earlier work
[2] = Contribution of metabolites to total pharmacological activity in human; settings: considering in vitro measurements and in vivo exposure
[3] = Rat ADME study: excretion, mass balance, metabolite profiling with radiolabeled ribociclib; format: in vivo; settings: rat
Protocol: (§1) ADME studies (including QWBA in pigmented and non‐pigmented rats) using radiolabeled ribociclib were conducted in rat and dog. Relevant institutional and national guides for the care and use of laboratory animals were followed.
(§2) Metabolite profiling was conducted on plasma, urine, bile, and feces samples in the rat and dog ADME studies, and further metabolite profiling on plasma and milk was conducted in a dedicated rat milk excretion study.
(§3) Plasma samples obtained from these studies were extracted with equal volumes of acetonitrile. Additional extractions of the protein pellet with acetonitrile and/or acetone were conducted as needed to maximize radioactivity recovery. Feces samples were initially extracted with two to four volumes of acetonitrile. Additional extractions of the pellet following centrifugation and removal of supernatant were conducted with acetonitrile and/or acetone as needed to maximize radioactivity recovery. Urine and bile samples were analyzed directly following centrifugation. Radioactivity recoveries following the centrifugation step were measured by LSC. Milk samples were extracted with two volumes of acetonitrile, following centrifugation and removal of supernatant, the pellets were re‐suspended in 100 µL of water and re‐extracted with 200 µL acetonitrile.
(§4) Metabolite profiling in the ADME studies was conducted using liquid chromatography‐mass spectrometry. Radioactivity profiles were generated by diversion of the majority of the post‐column flow into 96‐well yttrium silicate scintillation‐coated plates (Deepwell Lumaplates; Perkin Elmer Life and Analytical Sciences Inc), by means of Gilson FC204 fraction collectors (Gilson). Metabolites were identified by mass spectrometry (Waters QTOF operating under MassLynx 4.1) and, where feasible, by comparison with authentic reference standards.

[4] = Human ADME study: quantitative metabolite profiling in urine and feces; format: in vivo; settings: pooled excreta n=6, from metabolite patterns (radio profiling)
Protocol: Average pools across the six subjects were also created by combining equal percentages (of total urine and feces excreted over the time interval) of the individual subject pools. Urine pools were analyzed directly for metabolite profiling (column recovery of a representative sample was measured), whereas feces pools were subjected to extraction. Specifically, to each aliquot of feces homogenate, two volumes of acetonitrile were added. After centrifugation, the pellet was washed further with an additional two volumes of acetonitrile. […] All washes were combined, evaporated under nitrogen, and reconstituted with a solution of 15‐mM ammonium formate (pH 3.5). This feces extract reconstitute was analyzed for metabolite profiling. Combined extraction and reconstitution (overall recovery) and column recovery were measured. […] The HPLC column used was a Phenomenex Kinetex, C18, 250 × 4.6 mm, equipped with a pre‐column of the same type (2.1 × 4.6 mm), which was placed in a column oven at 40°C. […] The HPLC gradient was as follows: initial conditions were 5% mobile phase B for 1 minute, then increased to 20% at 10 minutes post injection where it was held (isocratic) up to 20 minutes. […] The post column flow was directed to the fraction collector operated in a time‐slice mode and containing 96‐well Lumaplates (Perkin Elmer). The plates were dried at room temperature and the radioactivity was measured using a microplate scintillation counter model TopCount NXT (Perkin Elmer) instrument (up to 3 × 100‐minute counting time). […] Metabolites were identified during the same injections using data generated by the high‐resolution mass spectrometer. The molecular ions and key fragments of each drug‐related component were determined. Key fragments for each metabolite were derived from their product ion mass spectra and were used to determine the metabolite structures. Where possible, structural assignments were supported by exact mass measurement, comparison with synthetic standards and/or Hydrogen/Deuterium (H/D) exchange LC‐MS(/MS).

[5] = Dog ADME study: excretion, mass balance, metabolite profiling with radiolabeled ribociclib; format: in vivo
Protocol: as §1, §2, §3, §4

[6] = Human ADME study: PK of ribociclib and LEQ803 in plasma and urine (validated bioanalytical assay); format: in vivo; settings: human plasma, bioanalytical assay, single oral 600 mg, N=6; for AUC(0-inf) / AUC(0-t) / Cmax / half-life: human, plasma, po, 600 mg
Protocol: Subjects continued to fast for 4 hours after drug administration.
Plasma aliquots at each time point were subjected to protein precipitation with three volumes of acetonitrile containing 0.1% (v:v) formic acid, followed by dilution and analysis by liquid chromatography‐tandem mass spectrometry in selected reaction monitor‐positive ion mode using heated electrospray ionization as the ionization technique. For urine aliquots, six volumes of acetonitrile containing 0.1% (v:v) formic acid were added, followed by dilution and analysis in the same way as for plasma. Components were separated using a YMC‐Triart C18 (2.0 x 30 mm, 1.9 µm) column (YMC Co. Ltd.). […] Mobile phase A was 0.1% formic acid in H2O while mobile phase B was 0.1% formic acid in ACN:Isopropanol 8:2 v:v.

[7] = Human ADME study: quantitative metabolite profiling in plasma; format: in vivo
Protocol: A plasma pool across the six healthy volunteers included in the study was prepared at the time points of 1 hour, 3 hours, 24 hours, and 48 hours post dose. For each time point, an equal volume of plasma was taken from each subject and combined. Plasma pool samples were processed by protein precipitation with acetonitrile. The protein pellet that resulted from precipitation with acetonitrile was washed further with additional aliquots of acetonitrile. All acetonitrile washes were combined and evaporated under nitrogen. For the 3‐ and 24‐hour plasma pools, the extraction procedure was slightly modified, including precipitation of the plasma proteins by addition of a 1:1 mixture of acetonitrile:methanol, followed by washing of the protein pellet with the same solvent mixture. All extracts were reconstituted with a solution of 15‐mM ammonium formate and acetonitrile (95:5 v/v). Extraction and reconstitution recoveries were measured in all four plasma samples in order to calculate and overall recovery. Quantitative metabolite profiling in plasma was accomplished using a Shimadzu Prominence high‐performance liquid chromatography (HPLC) system (Shimadzu, Columbia, MD, USA), coupled with fraction collection and analysis of total radioactivity in individual fractions using AMS (as described above). A second injection of each sample, conducted immediately after the first, was used to provide HPLC fractions for metabolite identification. The fractions identified as containing radioactivity from the AMS analysis were analyzed by HPLC coupled with high‐resolution mass spectrometry to identify the metabolites. The HPLC‐MS/MS methodology used is described below.

CYP3A = settings: cited from earlier work
[8] = substrate: CN(C)C(=O)c1cc2cnc(Nc3ccc(N4CCNCC4)cn3)nc2n1C1CCCC1; assay: Enzyme kinetics with recombinant CYP2J2 and scaling to HLM; format: in vitro ADME, human; settings: other: recombinant CYP2J2; 37.0 °C
Protocol: In vitro incubations were carried out in 100‐mM potassium phosphate buffer (pH 7.4) and 5‐mM MgCl2 with a total volume of 200 µL. Substrate and either human liver microsomes (HLM, BD Biosciences, mixed gender pool of n = 50) or recombinant human enzymes (BD Biosciences) were added and pre‐incubated for 3 minutes at 37°C. The reaction was started by addition of a fresh solution of NADPH (1 mmol/L final concentration). The samples were incubated at 37°C with agitation of 500 rpm. For incubations with CYP2A6, CYP2C9, CYP2C18, and CYP4A11, the phosphate buffer was replaced by TRIS buffer (100 mmol/L, pH 7.4) and for flavin‐containing monooxygenases (FMOs), a glycine buffer (50 mM, pH 9.5) was used.
The enzymatic reaction was stopped and the protein was precipitated by addition of an equal volume of methanol. After 30 min at −80°C, the samples were centrifuged at 30'000 x g for 15 min. The supernatant was withdrawn. Aliquots were analyzed by LSC and the supernatant was diluted with water to obtain a final solution containing less than 20% of the organic solvent. For samples of low substrate concentration, supernatants were evaporated to dryness under nitrogen, then re‐suspended in water containing less than 20% of methanol. Samples were analyzed by HPLC combined with radiodetection. […]

Cn1cc[nH]c1=S [Methimazole]
Ki (FMO): 61000 nM

Nc1ccc(S(=O)(=O)Nc2ccnn2-c2ccccc2)cc1 [Sulfaphenazole]
IC50 [1]: > 5000 nM

Cc1nc2c([nH]1)c(=O)n(C)c(=O)n2Cc1ccco1 [Furafylline]
IC50 [1]: > 10000 nM

CNC(=O)c1cc2cnc(Nc3ccc(N4CCNCC4)cn3)nc2n1C1CCCC1 [M4 (LEQ803)]
contribution to total pharmacological activity in human [2]: not to have a relevant contribution to total pharmacological activity
metabolite as % of plasma exposure to ribociclib [3]: 38%
Excretion (% of dose), Feces [4]: 13.9 % of dose
Excretion (% of dose), Urine [4]: 3.74 % of dose
Excretion (% of dose), Feces ([4]; listed as M4): approximately 13.9 % of dose
Excretion (% of dose), Urine ([4]; listed as M4): approximately 3.74 % of dose
metabolite as % of plasma exposure to ribociclib [5]: 3%
tlast, median (range) [6]: 252 (240‐312) h
Tmax ([6]; read-out: tmax, median (range)): 2.5 h
AUC(0-inf) ([6]; read-out: AUCinf, arithmetic mean (CV %)): 2320 ng·h/mL
AUC(0-inf) ([6]; read-out: AUCinf, median): 2390 ng·h/mL
AUC(0-t) ([6]; read-out: AUClast, arithmetic mean (CV %)): 2160 ng·h/mL
AUC(0-t) ([6]; read-out: AUClast, median): 2240 ng·h/mL
Cmax ([6]; read-out: Cmax, arithmetic mean (CV %)): 67.6 ng/mL
Cmax ([6]; read-out: Cmax, median): 59 ng/mL
half-life ([6]; read-out: t½, arithmetic mean (CV %) (converted)): 91.8 h
half-life ([6]; read-out: t½, median (converted)): 78.2 h
ratio of AUC0-48 by validated bioanalytical assay to AUC0-48 from metabolite patterns ([7]; human plasma): 0.813
AUC0-48h, % of total [14C]-AUC0-48 ([7]; human plasma pools n=6, from metabolite patterns): 8.60%
metabolite exposure as % of ribociclib exposure ([7]; human plasma, AUC0-48): 19.8%

B1: CYP2J2 (Homo sapiens) (protein)
chain: MLAAMGSLAAALWAVVHPRTLLLGTVAFLLAADFLKRRRPKNYPPGPWRLPFLGNFFLVDFEQSHLEVQLFVKKYGNLFSLELGDISAVLITGLPLIKEALIHMDQNFGNRPVTPMREHIFKKNGLIMSSGQAWKEQRRFTLTALRNFGLGKKSLEERIQEEAQHLTEAIKEENGQPFDPHFKINNAVSNIICSITFGERFEYQDSWFQQLLKLLDEVTYLEASKTCQLYNVFPWIMKFLPGPHQTLFSNWKKLKLFVSHMIDKHRKDWNPAETRDFIDAYLKEMSKHTGNPTSSFHEENLICSTLDLFFAGTETTSTTLRWALLYMALYPEIQEKVQAEIDRVIGQGQQPSTAARESMPYTNAVIHEVQRMGNIIPLNVPREVTVDTTLAGYHLPKGTMILTNLTALHRDPTEWATPDTFNPDHFLENGQFKKREAFMPFSIGKRACLGEQLARTELFIFFTSLMQKFTFRPPNNEKLSLKFRMGITISPVSHRLCAVPQV
notes: purchased BD Biosciences
Km [8]: 11.8 µM

Reference: PMC7287031 (Pharmacology Research & Perspectives, 2020)
